The RepoRT retention time repository

Assay: Agilent ZORBAX 300 SB-C18, 150 × 1 mm, 3.5 µm; A: water + 0.01% heptafluorobutyric acid; B: acetonitrile + 0.01% heptafluorobutyric acid; gradient (min/%B) 0/0 100/90
Settings: stereoisomer not certain

`CCCNC(C)C(=O)Nc1ccccc1C` (configuration not stated) and `COC(=O)CCNC(C)Cc1ccccc1` (configuration not stated) are within 1.5-fold of each other in LC retention time: 9.17 min for the first, 8.9 min for the second.

Going from `CCOC(=O)C(Cc1ccccc1)n1cccc1` (configuration not stated) to `CCOC(=O)C(N)Cc1ccccc1` (configuration not stated), the LC retention time falls from 15.9 min to 9.03 min (1.8-fold).

Going from `CN(C)CCO` to `CN(CCO)C(=O)Nc1ccccc1`, the LC retention time rises from 3.24 min to 7.92 min (2.4-fold).

Compared with `CN(C)Cc1c(N)cc2ccccc2c1-c1ccccc1`, `Cc1c(C(=O)N(C)c2ccccc2)oc2ccccc12` is 1.7-fold higher in LC retention time: 8.82 min for the first, 15.3 min for the second.

`CC(C)N(C)C(C)(C)C` and `CC(C)c1ncc[nH]1` are within 1.5-fold of each other in LC retention time: 7.1 min for the first, 6.64 min for the second.

`COC(=O)c1cccc(N=C2N=C(N)c3ccccc32)c1` and `CC(=O)Nc1c2ccccc2nc2ccccc12` are within 1.5-fold of each other in LC retention time: 9.59 min for the first, 7.89 min for the second.

`c1cnc(NC2=NCCN2)cn1` and `CN1CCC(NCc2cccnc2)CC1` are within 1.5-fold of each other in LC retention time: 6.92 min for the first, 7.19 min for the second.

`CN1CCC23CCCCC2C1Cc1ccc(O)cc13` (configuration not stated) and `Cc1ccc2c(c1)C1CN(C)CCC1N2C(=S)NC1CCCCC1` (configuration not stated) are within 1.5-fold of each other in LC retention time: 9.18 min for the first, 12.2 min for the second.

`NCc1ccc2ncccc2c1` and `c1cncc(-c2cc3ccccc3[nH]2)c1` are within 1.5-fold of each other in LC retention time: 7.05 min for the first, 10.1 min for the second.

`Cc1cc(-c2noc(C(c3ccccc3)c3ccccc3)n2)c2ccccc2n1` and `Cc1cc(-c2noc(-c3ccco3)n2)c2ccccc2n1` are within 1.5-fold of each other in LC retention time: 16.9 min for the first, 13.1 min for the second.

`CCCCCCCCCn1cc[n+](CCCCCCCCC)c1C` and `CCCCCCCCCCCCCCCCN` are within 1.5-fold of each other in LC retention time: 17.8 min for the first, 16.7 min for the second.

`O=C(NN=Cc1ccc(O)c(O)c1)c1ccc(NC(=O)c2ccccc2)cc1` and `O=C(NN=Cc1cc2ccccc2[nH]1)c1ccccc1` are within 1.5-fold of each other in LC retention time: 10.2 min for the first, 10.9 min for the second.

`CCCC(=O)Nc1ccc(N)cc1` and `C=Cc1ccc(N)cc1` are within 1.5-fold of each other in LC retention time: 7.75 min for the first, 8.31 min for the second.

`O=C(CCN1C(=O)c2ccccc2C1=O)NCc1ccco1` and `O=C(CCCN1C(=O)c2ccccc2C1=O)OCc1ccccc1` are within 1.5-fold of each other in LC retention time: 10.2 min for the first, 15.1 min for the second.

`NCCCCCCCCCCN` and `NCCCCCCN` are within 1.5-fold of each other in LC retention time: 7.57 min for the first, 6.78 min for the second.

`CCCCCCCCCCC(N)=O` and `CCCCCCCCCCCCCC(N)=O` are within 1.5-fold of each other in LC retention time: 15.3 min for the first, 19.7 min for the second.

`CC(C)(C=O)CN1CCCC1` and `NCCN1CCCCC1` are within 1.5-fold of each other in LC retention time: 6.76 min for the first, 6.98 min for the second.

Going from `CCn1c2ccccc2c2ccccc21` to `O=C(O)c1c2ccccc2nc2ccccc12`, the LC retention time falls from 17.5 min to 5.86 min (3-fold).

`CC(Nc1ccc2ccccc2c1)C(=O)NN=Cc1c2ccccc2cc2ccccc12` (configuration not stated) and `CC(=NNC(=O)c1cc2ccccc2cc1O)c1ccc(-c2ccccc2)cc1` are within 1.5-fold of each other in LC retention time: 17.5 min for the first, 16.3 min for the second.

`CCCCCCCNC(=O)c1ccc(OC(C)=O)cc1` and `CCCCN(CCCC)C(=O)c1ccc(OC(C)=O)cc1` are within 1.5-fold of each other in LC retention time: 14.9 min for the first, 15.3 min for the second.

Compared with `CC(N)=O`, `CCOC(=O)C1CCC(=O)N1` (configuration not stated) is 4.3-fold higher in LC retention time: 1.61 min for the first, 6.88 min for the second.

Going from `CN(C)C1C(=O)C(C(=O)NCN2CCCC2)C(=O)C2(O)C(=O)C3C(=O)c4c(O)cccc4C(C)(O)C3CC12` (configuration not stated) to `Cc1cc(C(=O)N2CCCCC2)c2c(=O)n(CC(=O)N3CCc4ccccc43)c(=O)n(C)c2n1`, the LC retention time rises from 8.91 min to 13.5 min (1.5-fold).

`S=C(NCc1ccccc1)NCc1ccc2[nH]c3c(c2c1)CCCC3` and `CC1CCCCN1C(=S)NCc1ccccc1` (configuration not stated) are within 1.5-fold of each other in LC retention time: 15.4 min for the first, 14.3 min for the second.

`Nc1ccc2oc3c(c2c1)CCCC3` and `Cc1nc2ccc(N)cc2nc1C` are within 1.5-fold of each other in LC retention time: 9.57 min for the first, 7.33 min for the second.

Compared with `c1ccc(CCn2cccc2)cc1`, `NC(=S)NCCc1ccccc1` is 1.6-fold lower in LC retention time: 15.5 min for the first, 9.59 min for the second.

Going from `Cc1ncc(C[n+]2csc(CCOP(=O)(O)OP(=O)(O)O)c2C)c(N)n1` to `CCCCOC(=O)C1C(C)=NC(=O)NC1c1ccc(CC)cc1` (configuration not stated), the LC retention time rises from 1.62 min to 14.3 min (8.8-fold).

`CCNC(=O)C(=O)NCCc1c[nH]c2ccccc12` and `O=C1NC(Cc2c[nH]c3ccccc23)C(=O)NC1Cc1c[nH]c2ccccc12` (configuration not stated) are within 1.5-fold of each other in LC retention time: 10.8 min for the first, 9.58 min for the second.

`CN(C)C1CCCCC1` and `CCOC(CN1CCCCC1)OCC` are within 1.5-fold of each other in LC retention time: 7.57 min for the first, 8.11 min for the second.

First: N=C(N=C(N)N)N1CCOCC1
Second: COc1ccc(NC(=O)Nc2ccc(OCC(=O)N3CCOCC3)cc2)cc1
The LC retention time of the first is 1.6-fold lower: 6.32 min for the first, 10 min for the second.

`CCCCCCCCNCCCCCCCC` and `CCCCCCCCCCCC[N+](C)(C)CCOc1ccccc1` are within 1.5-fold of each other in LC retention time: 14.8 min for the first, 16.6 min for the second.

`O=C(O)CCNc1cc(C(=O)O)ccc1C(=O)O` and `CC(C)CC(=O)Nc1cccc(C(=O)O)c1` are within 1.5-fold of each other in LC retention time: 7.69 min for the first, 10.1 min for the second.

First: Cc1nnc(N)[nH]c1=O
Second: Cc1ccc(-c2nn[nH]n2)cc1
The LC retention time of the first is 3.5-fold lower: 2.72 min for the first, 9.59 min for the second.

First: CCCCOc1ccccc1N
Second: Nc1ccccc1N
The LC retention time of the first is 1.6-fold higher: 10.8 min for the first, 6.66 min for the second.

`c1cc(CCCc2ccncc2)ccn1` and `CC(=O)Nc1ccc(Cc2ccncc2)cc1` are within 1.5-fold of each other in LC retention time: 7.37 min for the first, 7.75 min for the second.

`C[N+]1(CCOCc2ccccc2)CC[N+](C)(CCOCc2ccccc2)CC1` (configuration not stated) and `CN(C)CCOC(c1ccccc1)c1ccccc1` are within 1.5-fold of each other in LC retention time: 9.32 min for the first, 10.9 min for the second.

Compared with `CC(C)(C)c1ccc(-c2cc(C(=O)O)c3c(ccc4ccccc43)n2)cc1`, `CC(C)(C)c1ccc(-c2nc(NCc3cccnc3)c3ccccc3n2)cc1` is 1.5-fold lower in LC retention time: 16.4 min for the first, 10.9 min for the second.

`c1ccc(-c2ccnc(-c3cc(-c4ccccc4)ccn3)c2)cc1` and `c1ccc(Nc2ccccc2)cc1` are within 1.5-fold of each other in LC retention time: 14.9 min for the first, 15.4 min for the second.

`COc1ccc(C=NNC(N)=O)c(OC)c1` and `COc1ccc(OC)c(NC(=O)Cn2c(=O)n(C)c(=O)n(C)c2=O)c1` are within 1.5-fold of each other in LC retention time: 9.56 min for the first, 10.7 min for the second.

Going from `COc1ccc2c(c1O)-c1cccc3c1C(C2)N(C)CC3` (configuration not stated) to `COc1ccc2c(c1)CCC1C2CCC2(C)C(=O)C(=Cc3ccccc3)CC12` (configuration not stated), the LC retention time rises from 9.69 min to 21.4 min (2.2-fold).

`CC12CCC(=O)C=C1CCC1C2CCC2(C)C1CCC2(C)O` (configuration not stated) and `C=C(C)C1CCC2=CC(=O)CC(C)C2(C)C1` (configuration not stated) are within 1.5-fold of each other in LC retention time: 14.5 min for the first, 17.1 min for the second.

`Cc1cccc(-n2c(C)cc(C=NNC(N)=S)c2C)c1C` and `Cc1cc(C=NNC(N)=S)c(C)n1-c1ccccc1` are within 1.5-fold of each other in LC retention time: 14.4 min for the first, 12.7 min for the second.

`CCN(CC)CCNc1cccc2ccccc12` and `CCN(CC)c1ccc(CCN)cc1` are within 1.5-fold of each other in LC retention time: 10.1 min for the first, 8.39 min for the second.

`CCOc1ccc(CCNC(=O)N(c2ccccc2)c2ccccc2)cc1OCC` and `O=C(c1ccc(CN2CCc3ccccc3C2)cc1)N(Cc1ccccc1)Cc1ccccc1` are within 1.5-fold of each other in LC retention time: 16 min for the first, 12.5 min for the second.

`Cc1ccc2c(c1)C(=O)c1cnc(C)cc1-2` and `Cc1ccc(C)c(-c2cc(C)ncc2C)c1` are within 1.5-fold of each other in LC retention time: 10.3 min for the first, 10.6 min for the second.

`O=c1cc(Nc2ccccc2)c2ccccc2o1` and `COC(=O)COC(=O)c1ccccc1NC(=O)c1ccccc1` are within 1.5-fold of each other in LC retention time: 12.2 min for the first, 15.1 min for the second.

`CC1(C)CC(O)N=C1c1ccccc1` (configuration not stated) and `Cc1[nH]c(=S)[nH]c1-c1ccccc1` are within 1.5-fold of each other in LC retention time: 8.25 min for the first, 9.06 min for the second.

`CC(=O)NCCOc1ccc(C)cc1` and `CC1=NN(c2ccc(C)cc2)C(=O)C1C=O` (configuration not stated) are within 1.5-fold of each other in LC retention time: 10.4 min for the first, 8.94 min for the second.

`Cc1ccc(N)c(N)c1` and `Cc1ccccc1N(C)C` are within 1.5-fold of each other in LC retention time: 7.42 min for the first, 7.62 min for the second.

`CCCCNCC(=O)Nc1ccc(NC(=O)CNCCCC)cc1` and `O=C(O)CCCNC(=O)CCCCCCCC(=O)NCCCC(=O)O` are within 1.5-fold of each other in LC retention time: 8.26 min for the first, 7.58 min for the second.

`c1ccc2c(N3CCCCC3)nc(N3CCCC3)nc2c1` and `O=C1C=CC(=O)N1c1ccc(N2CCCCC2)cc1` are within 1.5-fold of each other in LC retention time: 11.7 min for the first, 9.22 min for the second.

First: NCCCP(=O)(O)O
Second: Nc1ccn(CC(O)CO)c(=O)n1 (configuration not stated)
The LC retention time of the first is 3.4-fold lower: 1.3 min for the first, 4.4 min for the second.

`CN(C)c1ccccn1` and `Cc1cccnc1C` are within 1.5-fold of each other in LC retention time: 6.81 min for the first, 6.67 min for the second.

`COc1cc(C2ON=C(CN3CCOCC3)C2C)c(OC)c2c1OCO2` (configuration not stated) and `COc1ccccc1OCCN1CCNCC1` are within 1.5-fold of each other in LC retention time: 9.6 min for the first, 8.16 min for the second.

`NNC(=S)Nc1ccccc1` and `CCNc1ccccc1` are within 1.5-fold of each other in LC retention time: 8.31 min for the first, 7.68 min for the second.

Compared with `Cc1ccc(N2C3=C(C(=O)CC(C)(C)C3)C(c3ccccc3)C3=C2c2ccccc2C3=O)cc1` (configuration not stated), `O=C1CC(N2CCN(C(c3ccccc3)c3ccccc3)CC2)C(=O)N1c1ccccc1` (configuration not stated) is 1.6-fold lower in LC retention time: 18.4 min for the first, 11.2 min for the second.

`CN(C)c1ccc(N=C2C=CC(=Nc3ccc(N(C)C)cc3)C=C2)cc1` and `Cc1ccc(C(=O)NC(=Cc2ccc(C(C)C)cc2)C(=O)NCc2cccnc2)cc1` are within 1.5-fold of each other in LC retention time: 9.47 min for the first, 11.9 min for the second.

First: CN1N=C(C(=O)O)CCC1=O
Second: Cn1c(=O)[nH]cc(CC(=O)O)c1=O
The LC retention time of the first is 1.6-fold lower: 3.29 min for the first, 5.4 min for the second.

`CCNCCNCC` and `CN1CCN(C)CC1` are within 1.5-fold of each other in LC retention time: 6.88 min for the first, 6.13 min for the second.

`c1coc(CN2CCNCC2)c1` and `O=C(O)CN=C1NC2(CCCCC2)Cc2ccccc21` are within 1.5-fold of each other in LC retention time: 7.3 min for the first, 9.36 min for the second.

`c1cncc(-c2nc3ccccc3[nH]2)c1` and `O=c1[nH]c2ccccc2c(=O)n1-c1cccnc1` are within 1.5-fold of each other in LC retention time: 8.19 min for the first, 8.1 min for the second.

`Cc1cc2ncn(Cc3c(C)c(C)cc(C)c3C)c2cc1C` and `CC(=O)C(=C1NC(C)(C)Cc2cc(C)c(C)cc21)c1ccccc1` are within 1.5-fold of each other in LC retention time: 13 min for the first, 17.6 min for the second.

Compared with `O=C(O)C1CCCCC1C(=O)Nc1ccc2c(c1)CCCC2` (configuration not stated), `O=C1CCCN1CP(=O)(O)CN1CCCC1=O` is 9.5-fold lower in LC retention time: 13.8 min for the first, 1.46 min for the second.

`CC(C)(C)c1ccc(C(=O)NN=Cc2cccnc2)cc1` and `COc1ccccc1C=NNC(=O)c1ccc(C(C)(C)C)cc1` are within 1.5-fold of each other in LC retention time: 11.2 min for the first, 15.3 min for the second.

`Cc1cccc(C=NNC(=O)C[n+]2ccccc2)c1` gave an LC retention time of 9.09 min.
